What all share (experiment): NCI 60 cell one-dose screening (SRB)
Holding throughout (format): cell-based

One experiment has as its system HCC-2998. Particulars: Homo sapiens; HCC-2998, Colon Cancer; single dose 10 µM, 48 h; read-out: Percentage of cellular growth inhibition. On the procedure: (§1) The 60 cancerous cell panel screening was performed following the Developmental Therapeutics Program (DTP) of the National Cancer Institute (NIH-NCI), USA. A single dose of 10 µM was used to perform the screening at 48 h incubation and the results were achieved as cancerous cell growth percentage relative to the no-drug control that was converted to an inhibition percentage by subtracting from 100.The cancerous cell lines were grown in RPMI 1640 medium containing 5% foetal bovine serum and 2 mM L-glutamine at 37 °C, 5% CO2, 95% air and 100% relative humidity for 24 h prior to addition of the tested compounds. After 24 h, two plates of each cell line were fixed in situ with TCA to represent a measurement of the cell population for each cell line at the time of drug addition (Tz). Compounds were dissolved in DMSO at 400-fold the desired final maximum test concentration and stored frozen prior to use. At the time of drug addition, an aliquot of frozen concentrate was thawed and diluted to twice the desired final maximum test concentration with complete medium containing 50 µg/mL gentamicin. Aliquots of 100 µL of the compounds dilution was added to the appropriate micro titre wells already containing 100 µL of medium, resulting in the required final drug concentrations of 10 µM. Following compounds addition, the plates were incubated for an additional 48 h at 37 °C, 5% CO2, 95% air, and 100% relative humidity. For adherent cells, the assay was terminated by the addition of cold TCA. Cells were fixed in situ by the gentle addition of 50 µL of cold 50% (w/v) TCA (final concentration, 10% TCA) and incubated for 60 min at 4 °C. The supernatant was discarded, and the plates were washed five times with tap water and air dried. Sulphorhodamine B (SRB) solution (100 µL) at 0.4% (w/v) in 1% acetic acid is added to each well, and plates are incubated for 10 min at room temperature. After staining, unbound dye was removed by washing five times with 1% acetic acid and the plates were air dried. Bound stain was subsequently solubilised with 10 mM trizma base, and the absorbance was read on an automated plate reader at a wavelength of 515 nm. For suspension cells, the methodology was the same except that the assay was terminated by fixing settled cells at the bottom of the wells by gently adding 50 µL of 80% TCA (final concentration, 16% TCA). Using the seven absorbance measurements [time zero, (Tz), control growth, I, and test growth in the presence of drug at the five concentration levels (Ti)], the percentage growth was calculated as: [(Ti−Tz)/(C−Tz)]×100 for concentrations for which Ti>/=Tz [(Ti−Tz)/Tz]×100 for concentrations for which Ti<Tz.

In a further experiment the test system is 786-0. Particulars: Homo sapiens; 786-0, Renal Cancer; single dose 10 µM, 48 h; read-out: Percentage of cellular growth inhibition. As to the method: as §1
Another experiment relates to KM12. As to conditions: Homo sapiens; KM12, Colon Cancer; single dose 10 µM, 48 h; read-out: Percentage of cellular growth inhibition. On the procedure:
as §1

Another experiment deals with A498. As to conditions: Homo sapiens; A498, Renal Cancer; single dose 10 µM, 48 h; read-out: Percentage of cellular growth inhibition. On the procedure:
as §1

Another experiment has as its system RPMI-8226. Particulars: Homo sapiens; RPMI-8226, Leukemia; single dose 10 µM, 48 h; read-out: Percentage of cellular growth inhibition. On the procedure: as §1
A further experiment relates to TK-10. As to conditions: Homo sapiens; TK-10, Renal Cancer; single dose 10 µM, 48 h; read-out: Percentage of cellular growth inhibition. On the procedure: as §1
The test system of a further experiment is UO-31. Particulars: Homo sapiens; UO-31, Renal Cancer; single dose 10 µM, 48 h; read-out: Percentage of cellular growth inhibition. As to the method:
as §1

The next experiment relates to NCI-H226. As to conditions: Homo sapiens; NCI-H226, Non-Small Cell Lung Cancer; single dose 10 µM, 48 h; read-out: Percentage of cellular growth inhibition. On the procedure:
as §1

The test system of a further experiment is SW-620. As to conditions: Homo sapiens; SW-620, Colon Cancer; single dose 10 µM, 48 h; read-out: Percentage of cellular growth inhibition. As to the method:
as §1

Another experiment concerns IGROV1. Particulars: Homo sapiens, IGROV-1; IGROV1, Ovarian Cancer; single dose 10 µM, 48 h; read-out: Percentage of cellular growth inhibition. As to the method:
as §1

The test system of another experiment is HCT-116. As to conditions: Homo sapiens; HCT-116, Colon Cancer; single dose 10 µM, 48 h; read-out: Percentage of cellular growth inhibition. As to the method:
as §1

In a further experiment the test system is HT29. As to conditions: Homo sapiens, HT-29; HT29, Colon Cancer; single dose 10 µM, 48 h; read-out: Percentage of cellular growth inhibition. As to the method: as §1
A further experiment concerns DU-145. Particulars: Homo sapiens; DU-145, Prostate Cancer; single dose 10 µM, 48 h; read-out: Percentage of cellular growth inhibition. As to the method:
as §1

For another experiment, the system named is MDA-MB-231/ATCC. Particulars: Homo sapiens, Breast Cancer, single dose 10 µM, 48 h, read-out: Percentage of cellular growth inhibition. On the procedure:
as §1

Another experiment relates to EKVX. As to conditions: Homo sapiens, Non-Small Cell Lung Cancer, single dose 10 µM, 48 h, read-out: Percentage of cellular growth inhibition. As to the method:
as §1

A further experiment relates to MDA-MB-435. As to conditions: Homo sapiens; MDA-MB-435, Melanoma; single dose 10 µM, 48 h; read-out: Percentage of cellular growth inhibition. As to the method:
as §1

In the next experiment the test system is SNB-75. Particulars: Homo sapiens; SNB-75, CNS Cancer; single dose 10 µM, 48 h; read-out: Percentage of cellular growth inhibition. On the procedure: as §1
The test system of a further experiment is MCF7. Particulars: Homo sapiens; MCF7, Breast Cancer; single dose 10 µM, 48 h; read-out: Percentage of cellular growth inhibition. As to the method: as §1
In another experiment the test system is UACC-257. As to conditions: Homo sapiens; UACC-257, Melanoma; single dose 10 µM, 48 h; read-out: Percentage of cellular growth inhibition. As to the method:
as §1

The next experiment deals with UACC-62. Particulars: Homo sapiens; UACC-62, Melanoma; single dose 10 µM, 48 h; read-out: Percentage of cellular growth inhibition. As to the method: as §1

Structures are written as SMILES.

Take `CCOc1ccc(/N=N/c2sc(Nc3cccc(Nc4nc(C)c(/N=N/c5ccc(OCC)cc5)s4)c3)nc2C)cc1` [5b, N^1,N^3-bis(5-((4-ethoxyphenyl)diazinyl)-4-methylthiazol-2-yl)benzene-1,3-diamine]: the inhibition at 10 µM with HCC-2998 was -4.6%; in the experiment with 786-0, 6.6%; with KM12 it was -0.8%; with A498, 13.5%; in the experiment on RPMI-8226 it was -7.2%; in the experiment on TK-10 it was -0.2%. The inhibition at 10 µM in the experiment on UO-31 was 12.4%; in the experiment on NCI-H226, 14.8%; in the experiment on SW-620 it was -0.3%; in the experiment with IGROV1, 9.7%; with HCT-116, 3.8%; in the experiment with HT29, 0.2%. For the same compound, the inhibition at 10 µM in the experiment with DU-145 was -3.9%; in the experiment with MDA-MB-231/ATCC it was 6.7%; in the experiment on EKVX, 6.5%; in the experiment with MDA-MB-435, 1.6%; in the experiment with SNB-75, 7.8%; in the experiment on MCF7 it was 10.6%. Besides, the inhibition at 10 µM in the experiment on UACC-257 is -9.2%; in the experiment on UACC-62, 20.5%.

As for `Fc1ccc(-c2csc(Nc3cccc(Nc4nc(-c5ccc(F)cc5)cs4)c3)n2)cc1` [6b, N^1,N^3-bis(4–(4-fluorophenyl)thiazol-2-yl)benzene-1,3-diamine], the inhibition at 10 µM in the experiment with HCC-2998 was determined as 64.8%; in the experiment on 786-0, 31.2%; with KM12, 62.4%; in the experiment with A498, 21.7%; in the experiment on RPMI-8226, 50.5%; in the experiment on TK-10 it was 5.5%. Also, the inhibition at 10 µM worked out at 68.7% in the experiment on UO-31; 48.5% in the experiment with NCI-H226; 29.7% with SW-620; 58.2% with IGROV1; 42.3% with HCT-116; 37.7% in the experiment on HT29. For the same compound, the inhibition at 10 µM worked out at 32.3% in the experiment on DU-145; 35.4% in the experiment on MDA-MB-231/ATCC; 60.2% in the experiment on EKVX; 36.9% in the experiment on MDA-MB-435; 4.8% in the experiment on SNB-75; 75.3% with MCF7. The inhibition at 10 µM in the experiment on UACC-257 was determined as 25.4%; with UACC-62 it was 42.9%.

With `Clc1ccc(-c2cs/c(=N\c3ccccc3)n2-c2cccc(-n3c(-c4ccc(Cl)cc4)cs/c3=N\c3ccccc3)c2)cc1` [8c, N,N’-(3,3’-(1,3-phenylene)bis(4–(4-chlorophenyl)thiazole-3(3H)-yl-2(3H)-ylidene))dianiline], the inhibition at 10 µM was -1.7% in the experiment on HCC-2998; -6.9% in the experiment with 786-0; 8.8% with KM12; -16.3% with A498; 37% in the experiment on RPMI-8226; -14.1% with TK-10. The inhibition at 10 µM in the experiment with UO-31 is 17.8%; with NCI-H226, 16.9%; in the experiment on SW-620, 36.7%; in the experiment on IGROV1 it was -0.4%; in the experiment with HCT-116 it was 15.7%; with HT29 it was 12.4%. Also, the inhibition at 10 µM was 19.2% with DU-145; -4.5% in the experiment on MDA-MB-231/ATCC; 4.9% in the experiment with EKVX; 5.4% in the experiment on MDA-MB-435; 14.6% in the experiment on SNB-75; 23.4% in the experiment with MCF7. The inhibition at 10 µM was -8.4% in the experiment on UACC-257 and 10.5% with UACC-62.

As to `Cc1nc(Nc2cccc(Nc3nc(C)c(N=Nc4ccccc4)s3)c2)sc1N=Nc1ccccc1` [5a, N^1,N^3-bis(4-methyl-5-(phenyldiazenyl)thiazol-2-yl)benzene-1,3-diamine], the inhibition at 10 µM was -0.4% in the experiment on HCC-2998; 18.7% in the experiment with 786-0; 52.1% with KM12; 1.2% in the experiment on A498; -9.4% in the experiment with RPMI-8226; 2.9% in the experiment on TK-10. The inhibition at 10 µM with UO-31 stood at 69.7%; in the experiment on NCI-H226, 33%; with SW-620 it was 9.4%; in the experiment on IGROV1, 52.2%; in the experiment on HCT-116, 14.1%; in the experiment on HT29 it was 2%. Besides, the inhibition at 10 µM in the experiment on DU-145 worked out at 16.6%; in the experiment with MDA-MB-231/ATCC, 35.1%; in the experiment on EKVX, 16.9%; in the experiment on MDA-MB-435 it was 7.9%; in the experiment with SNB-75, 38.4%; in the experiment on MCF7 it was 52.4%. Besides, the results for the inhibition at 10 µM in the experiment on UACC-257 and in the experiment with UACC-62 were 2.7% and 30.9%, respectively.

As to `Clc1ccc(-c2csc(Nc3cccc(Nc4nc(-c5ccc(Cl)cc5)cs4)c3)n2)cc1` [6c, N^1,N^3-bis(4–(4-chlorophenyl)thiazol-2-yl)benzene-1,3-diamine], the inhibition at 10 µM in the experiment with HCC-2998 is -10.9%; in the experiment on 786-0 it was 29.2%; with KM12 it was -1.4%; in the experiment with A498 it was 9.8%; with RPMI-8226, 14.8%; in the experiment on TK-10 it was 1.4%. Moreover, the inhibition at 10 µM was 21.6% with UO-31; 27.2% in the experiment with NCI-H226; 0.4% in the experiment with SW-620; 9% in the experiment on IGROV1; 38.5% with HCT-116; -10.5% in the experiment on HT29. Also, the inhibition at 10 µM is -1.8% in the experiment with DU-145; 24.9% in the experiment with MDA-MB-231/ATCC; 12.4% in the experiment on EKVX; -7.1% with MDA-MB-435; 22.5% in the experiment on SNB-75; 9.8% in the experiment with MCF7. The inhibition at 10 µM is -20.4% in the experiment with UACC-257 and 17.4% in the experiment on UACC-62.
